Values of other authors as cited in patent publication US11230722B2, “Nutritional supplements and therapeutic compositions comprising (r)-3-hydroxybutyrate derivatives” (Oxford University Innovation Limited, priority 2003, dated 2022).

Test system: gastric enzymes

absorption: only poorly absorbed
hydrolysis by gastric enzymes: not efficiently hydrolyzed
Structure (SMILES): C[C@@H]1CC(=O)O[C@H](C)CC(=O)O[C@H](C)CC(=O)O1 [triolide, cyclic trimer of (R)-3-hydroxybutyrate]
